How the values were obtained:
[1] = system: ethanol induced ulcers in the rat; experiment: Ethanol induced ulcers in the rat; format: in vivo
Method: (§1) The anitulcer activity of these derivatives was evaluated on ulcers induced by the administration of ethanol, hydrochloric acid and sodium hydroxide in the rat, also on gastric ulcers induced by aspirin in the rat, and on their influence on gastric secretions in the rat.
(1) Ethanol induced ulcers in the rat:
The method used is that described by A. Robert et al, in Gastroenterology 77,433 (1979), the disclosure of which is incorporated herein by reference.

[2] = system: HCl induced ulcers in the rat; experiment: Hydrochloric acid induced ulcers in the rat; format: in vivo
Method: as §1
(2) Hydrochloric acid induced ulcers in the rat:
The method used for this test is that described by A. Robert et al, in Gastroenterology, 77,433, (1979), the disclosure of which is incorporated herein by reference.

[3] = system: NaOH induced ulcers in the rat; experiment: Sodium hydroxide induced ulcers in the rat; format: in vivo
Method: as §1
(3) Sodium hydroxide induced ulcers in the rat:
Also this test is performed in accordance with the method described by A. Robert et al, in Gastroenterology, 77,433 (1979), the disclosure of which is incorporated herein by reference.

[4] = system: gastric secretion in the rat; experiment: Gastric secretion in the rat; format: in vivo, Sprague-Dawley rats
Method: as §1
(5) Gastric secretion in the rat:
Sprague-Dawley rats of both sexes are used for this test. The gastric secretion is rated according to the method described by H. Shay et al in Gastroenterology 5,43 (1945) the disclosure of which is incorporated herein by reference.

CCCCCCC1CCC(N)C1CCCCCCC(=O)O (stereo not shown) [drawing 8]
Percent inhibition of ethanol induced ulcers in the rat ([1]; 2.5 mg/kg): 40% | Percent inhibition of ethanol induced ulcers in the rat ([1]; 5 mg/kg): 50% | Percent inhibition of ethanol induced ulcers in the rat ([1]; 10 mg/kg): 70% | Percent inhibition of ethanol induced ulcers in the rat ([1]; 25 mg/kg): 67% | Percent inhibition of ethanol induced ulcers in the rat ([1]; 50 mg/kg): 88%

CCCCCCC1CCC(NC)C1CCCCCCC(=O)O (stereo not shown) [drawing 9]
Percent inhibition of ethanol induced ulcers in the rat ([1]; 5 mg/kg): 44% | Percent inhibition of ethanol induced ulcers in the rat ([1]; 10 mg/kg): 67% | Percent inhibition of ethanol induced ulcers in the rat ([1]; 25 mg/kg): 86% | Percent inhibition of ethanol induced ulcers in the rat ([1]; 50 mg/kg): 91% | Percent inhibition of ethanol induced ulcers in the rat ([1]; 100 mg/kg): 91%

CCCCCCC1CCC(N(C)C)C1CCCCCCC(=O)O (stereo not shown) [drawing 10]
Percent inhibition of ethanol induced ulcers in the rat ([1]; 2.5 mg/kg): 24% | Percent inhibition of ethanol induced ulcers in the rat ([1]; 5 mg/kg): 43% | Percent inhibition of ethanol induced ulcers in the rat ([1]; 10 mg/kg): 62% | Percent inhibition of ethanol induced ulcers in the rat ([1]; 50 mg/kg): 97% | Percent inhibition of ethanol induced ulcers in the rat ([1]; 100 mg/kg): 91%

CCCCCCC1CCC(NC(C)C)C1CCCCCCC(=O)O (stereo not shown) [drawing 11]
Percent inhibition of ethanol induced ulcers in the rat ([1]; 10 mg/kg): 9% | Percent inhibition of ethanol induced ulcers in the rat ([1]; 25 mg/kg): 34% | Percent inhibition of ethanol induced ulcers in the rat ([1]; 50 mg/kg): 65%

CCCCCCC1CCC(NC(C)=O)C1CCCCCCC(=O)O (stereo not shown) [drawing 12]
Percent inhibition of ethanol induced ulcers in the rat ([1]; 10 mg/kg): 25% | Percent inhibition of ethanol induced ulcers in the rat ([1]; 100 mg/kg): 78%

CCCCCCC1CCC(O)C1CCCCCCC(=O)O (stereo not shown) [drawing 13]
Percent inhibition of ethanol induced ulcers in the rat ([1]; 50 mg/kg): 9% | Percent inhibition of ethanol induced ulcers in the rat ([1]; 100 mg/kg): 37%

CCCCCCC1CCC(N)C1CCCCCCC(=O)O (stereo not shown) [drawing 14]
Percent inhibition of HCl induced ulcers in the rat ([2]; 50 mg/kg): 68% | Percent inhibition of HCl induced ulcers in the rat ([2]; 100 mg/kg): 89% | Percent inhibition of HCl induced ulcers in the rat ([2]; 200 mg/kg): 91%

CCCCCCC1CCC(NC)C1CCCCCCC(=O)O (stereo not shown) [drawing 15]
Percent inhibition of HCl induced ulcers in the rat ([2]; 25 mg/kg): 40% | Percent inhibition of HCl induced ulcers in the rat ([2]; 50 mg/kg): 49% | Percent inhibition of HCl induced ulcers in the rat ([2]; 100 mg/kg): 66%

CCCCCCC1CCC(N(C)C)C1CCCCCCC(=O)O (stereo not shown) [drawing 16]
Percent inhibition of HCl induced ulcers in the rat ([2]; 25 mg/kg): 23% | Percent inhibition of HCl induced ulcers in the rat ([2]; 50 mg/kg): 55% | Percent inhibition of HCl induced ulcers in the rat ([2]; 100 mg/kg): 63%

CCCCCCC1CCC(NC(C)C)C1CCCCCCC(=O)O (stereo not shown) [drawing 17]
Percent inhibition of HCl induced ulcers in the rat ([2]; 25 mg/kg): 0% | Percent inhibition of HCl induced ulcers in the rat ([2]; 50 mg/kg): 46% | Percent inhibition of HCl induced ulcers in the rat ([2]; 100 mg/kg): 54%

CCCCCCC1CCC(NC(C)=O)C1CCCCCCC(=O)O (stereo not shown) [drawing 18]
Percent inhibition of HCl induced ulcers in the rat ([2]; 25 mg/kg): 15% | Percent inhibition of HCl induced ulcers in the rat ([2]; 50 mg/kg): 66%

CCCCCCC1CCC(O)C1CCCCCCC(=O)O (stereo not shown) [drawing 19]
Percent inhibition of HCl induced ulcers in the rat ([2]; 25 mg/kg): 15% | Percent inhibition of HCl induced ulcers in the rat ([2]; 100 mg/kg): 45% | Percent inhibition of HCl induced ulcers in the rat ([2]; 200 mg/kg): 63%

CCCCCCC1CCC(N)C1CCCCCCC(=O)O (stereo not shown) [drawing 20]
Percent inhibition of NaOH induced ulcers in the rat ([3]; 5 mg/kg): 37% | Percent inhibition of NaOH induced ulcers in the rat ([3]; 10 mg/kg): 54% | Percent inhibition of NaOH induced ulcers in the rat ([3]; 25 mg/kg): 80%

CCCCCCC1CCC(NC)C1CCCCCCC(=O)O (stereo not shown) [drawing 21]
Percent inhibition of NaOH induced ulcers in the rat ([3]; 12.5 mg/kg): 81% | Percent inhibition of NaOH induced ulcers in the rat ([3]; 25 mg/kg): 87%

CCCCCCC1CCC(N(C)C)C1CCCCCCC(=O)O (stereo not shown) [drawing 22]
Percent inhibition of NaOH induced ulcers in the rat ([3]; 12.5 mg/kg): 52% | Percent inhibition of NaOH induced ulcers in the rat ([3]; 25 mg/kg): 63% | Percent inhibition of NaOH induced ulcers in the rat ([3]; 50 mg/kg): 74%

CCCCCCC1CCC(NC(C)C)C1CCCCCCC(=O)O (stereo not shown) [drawing 23]
Percent inhibition of NaOH induced ulcers in the rat ([3]; 12.5 mg/kg): 13% | Percent inhibition of NaOH induced ulcers in the rat ([3]; 25 mg/kg): 46% | Percent inhibition of NaOH induced ulcers in the rat ([3]; 50 mg/kg): 54%

CCCCCCC1CCC(NC(C)=O)C1CCCCCCC(=O)O (stereo not shown) [drawing 24]
Percent inhibition of NaOH induced ulcers in the rat ([3]; 12.5 mg/kg): 7% | Percent inhibition of NaOH induced ulcers in the rat ([3]; 25 mg/kg): 19% | Percent inhibition of NaOH induced ulcers in the rat ([3]; 50 mg/kg): 59%

CCCCCCC1CCC(O)C1CCCCCCC(=O)O (stereo not shown) [drawing 25]
Percent inhibition of NaOH induced ulcers in the rat ([3]; 50 mg/kg): 53% | Percent inhibition of NaOH induced ulcers in the rat ([3]; 100 mg/kg): 84% | Percent inhibition of NaOH induced ulcers in the rat ([3]; 200 mg/kg): 92%

CCCCCCC1CCC(N)C1CCCCCCC(=O)O (stereo not shown) [drawing 32]
Percent inhibition of gastric secretion in the rat ([4]; 12.5 mg/kg, 2 h after treatment): 38% | Percent inhibition of gastric secretion in the rat ([4]; 25 mg/kg, 2 h after treatment): 87% | Percent inhibition of gastric secretion in the rat ([4]; 50 mg/kg, 2 h after treatment): 88% | Percent inhibition of gastric secretion in the rat ([4]; 50 mg/kg, 4 h after treatment): 68% | Percent inhibition of gastric secretion in the rat ([4]; 100 mg/kg, 2 h after treatment): 77% | Percent inhibition of gastric secretion in the rat ([4]; 100 mg/kg, 4 h after treatment): 89%

CCCCCCC1CCC(NC)C1CCCCCCC(=O)O (stereo not shown) [drawing 33]
Percent inhibition of gastric secretion in the rat ([4]; 25 mg/kg, 2 h after treatment): 0% | Percent inhibition of gastric secretion in the rat ([4]; 25 mg/kg, 4 h after treatment): 40% | Percent inhibition of gastric secretion in the rat ([4]; 50 mg/kg, 2 h after treatment): 54% | Percent inhibition of gastric secretion in the rat ([4]; 50 mg/kg, 4 h after treatment): 49% | Percent inhibition of gastric secretion in the rat ([4]; 100 mg/kg, 2 h after treatment): 79% | Percent inhibition of gastric secretion in the rat ([4]; 100 mg/kg, 4 h after treatment): 66%

CCCCCCC1CCC(N(C)C)C1CCCCCCC(=O)O (stereo not shown) [drawing 34]
Percent inhibition of gastric secretion in the rat ([4]; 25 mg/kg, 2 h after treatment): 74% | Percent inhibition of gastric secretion in the rat ([4]; 25 mg/kg, 4 h after treatment): 23% | Percent inhibition of gastric secretion in the rat ([4]; 50 mg/kg, 2 h after treatment): 75% | Percent inhibition of gastric secretion in the rat ([4]; 50 mg/kg, 4 h after treatment): 55% | Percent inhibition of gastric secretion in the rat ([4]; 100 mg/kg, 2 h after treatment): 82% | Percent inhibition of gastric secretion in the rat ([4]; 100 mg/kg, 4 h after treatment): 63%

CCCCCCC1CCC(NC(C)C)C1CCCCCCC(=O)O (stereo not shown) [drawing 35]
Percent inhibition of gastric secretion in the rat ([4]; 25 mg/kg, 2 h after treatment): 35% | Percent inhibition of gastric secretion in the rat ([4]; 25 mg/kg, 4 h after treatment): 0% | Percent inhibition of gastric secretion in the rat ([4]; 50 mg/kg, 2 h after treatment): 56% | Percent inhibition of gastric secretion in the rat ([4]; 50 mg/kg, 4 h after treatment): 46% | Percent inhibition of gastric secretion in the rat ([4]; 100 mg/kg, 2 h after treatment): 37% | Percent inhibition of gastric secretion in the rat ([4]; 100 mg/kg, 4 h after treatment): 54%

CCCCCCC1CCC(NC(C)=O)C1CCCCCCC(=O)O (stereo not shown) [drawing 36]
Percent inhibition of gastric secretion in the rat ([4]; 25 mg/kg, 2 h after treatment): 51% | Percent inhibition of gastric secretion in the rat ([4]; 25 mg/kg, 4 h after treatment): 0% | Percent inhibition of gastric secretion in the rat ([4]; 50 mg/kg, 2 h after treatment): 48% | Percent inhibition of gastric secretion in the rat ([4]; 50 mg/kg, 4 h after treatment): 12% | Percent inhibition of gastric secretion in the rat ([4]; 100 mg/kg, 2 h after treatment): 70% | Percent inhibition of gastric secretion in the rat ([4]; 100 mg/kg, 4 h after treatment): 59%

CCCCCCC1CCC(O)C1CCCCCCC(=O)O (stereo not shown) [drawing 37]
Percent inhibition of gastric secretion in the rat ([4]; 25 mg/kg, 2 h after treatment): 0% | Percent inhibition of gastric secretion in the rat ([4]; 25 mg/kg, 4 h after treatment): 15% | Percent inhibition of gastric secretion in the rat ([4]; 50 mg/kg, 2 h after treatment): 30% | Percent inhibition of gastric secretion in the rat ([4]; 100 mg/kg, 2 h after treatment): 50% | Percent inhibition of gastric secretion in the rat ([4]; 100 mg/kg, 4 h after treatment): 45%
